Assay results as given in PubChem BioAssay (NCI).
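Test compounds were applied to cells in 96-well plates for 48 hours at 5 doses. At the GI50, growth is halved. The concentration for full growth arrest is given as TGI.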

Tests used:
Test in all cases: growth of human tumour cells (NCI), 48 h
786-0 renal = test system: 786-0 renal
A498 renal = test system: A498 renal
A549 NSCLC = test system: A549 NSCLC
ACHN renal = test system: ACHN renal
BT-549 breast = test system: BT-549 breast
CAKI-1 renal = test system: CAKI-1 renal
CCRF-CEM leukemia = test system: CCRF-CEM leukemia
COLO 205 colon = test system: COLO 205 colon
DU-145 prostate = test system: DU-145 prostate
EKVX NSCLC = test system: EKVX NSCLC
HCC-2998 colon = test system: HCC-2998 colon
HCT-116 colon = test system: HCT-116 colon
HCT-15 colon = test system: HCT-15 colon
HL-60(TB) leukemia = test system: HL-60(TB) leukemia
HOP-62 NSCLC = test system: HOP-62 NSCLC
HOP-92 NSCLC = test system: HOP-92 NSCLC
HS 578T breast = test system: HS 578T breast
HT29 colon = test system: HT29 colon
IGROV1 ovarian = test system: IGROV1 ovarian
K-562 leukemia = test system: K-562 leukemia
KM12 colon = test system: KM12 colon
LOX IMVI melanoma = test system: LOX IMVI melanoma
M14 melanoma = test system: M14 melanoma
MALME-3M melanoma = test system: MALME-3M melanoma
MCF7 breast = test system: MCF7 breast
MDA-MB-231 breast = test system: MDA-MB-231 breast
MDA-MB-435 = test system: MDA-MB-435
MOLT-4 leukemia = test system: MOLT-4 leukemia

Question: Which results are given for `COc1ccc2c(c1OC)-c1c(c3ccc([N+](=O)[O-])cc3c(=O)n1CCCN)C2=O`?
Answer: GI50 (786-0 renal): 4.76 µM; TGI (786-0 renal): 9.22 µM; GI50 (A498 renal): 3.03 µM; TGI (A498 renal): 14.3 µM; GI50 (A549 NSCLC): 4.37 µM; TGI (A549 NSCLC): 9.27 µM; GI50 (ACHN renal): 0.749 µM; TGI (ACHN renal): 3.33 µM; GI50 (BT-549 breast): 4.19 µM; TGI (BT-549 breast): 9.24 µM; GI50 (CAKI-1 renal): 9.49 µM; TGI (CAKI-1 renal): 24.7 µM; GI50 (CCRF-CEM leukemia): 1.27 µM; TGI (CCRF-CEM leukemia): 3.64 µM; GI50 (COLO 205 colon): > 100 µM; TGI (COLO 205 colon): > 100 µM; GI50 (DU-145 prostate): 3.36 µM; TGI (DU-145 prostate): 7.8 µM; GI50 (EKVX NSCLC): 4.98 µM; TGI (EKVX NSCLC): 11 µM; GI50 (HCC-2998 colon): 3.87 µM; TGI (HCC-2998 colon): 7.8 µM; GI50 (HCT-116 colon): 4.99 µM; TGI (HCT-116 colon): 9.23 µM; GI50 (HCT-15 colon): 3.37 µM; TGI (HCT-15 colon): 7.11 µM; GI50 (HL-60(TB) leukemia): 1.35 µM; TGI (HL-60(TB) leukemia): 2.63 µM; GI50 (HOP-62 NSCLC): 10.7 µM; TGI (HOP-62 NSCLC): 23.9 µM; GI50 (HOP-92 NSCLC): 12.3 µM; TGI (HOP-92 NSCLC): 27.1 µM; GI50 (HS 578T breast): 5.32 µM; TGI (HS 578T breast): 12 µM; GI50 (HT29 colon): 1.6 µM; TGI (HT29 colon): 8 µM; GI50 (IGROV1 ovarian): 2.02 µM; TGI (IGROV1 ovarian): 6.78 µM; GI50 (K-562 leukemia): 1.01 µM; TGI (K-562 leukemia): 3.94 µM; GI50 (KM12 colon): 4.31 µM; TGI (KM12 colon): 10.7 µM; GI50 (LOX IMVI melanoma): 3.18 µM; TGI (LOX IMVI melanoma): 7.26 µM; GI50 (M14 melanoma): 7.27 µM; TGI (M14 melanoma): 20.8 µM; GI50 (MALME-3M melanoma): 4.97 µM; TGI (MALME-3M melanoma): 10.5 µM; GI50 (MCF7 breast): 1.89 µM; TGI (MCF7 breast): 13.9 µM; GI50 (MDA-MB-231 breast): 1.87 µM; TGI (MDA-MB-231 breast): 3.95 µM; GI50 (MDA-MB-435): 12.7 µM; TGI (MDA-MB-435): 28.2 µM; GI50 (MOLT-4 leukemia): 0.692 µM; TGI (MOLT-4 leukemia): 3.68 µM
